Where “and” joins values, the source holds several entries; their conditions need not be identical. Equal entries are not always repeated. Where two headings read alike, the source gives them in different places.
Key:
Botrytis cinerea [1] = test: PDA plate inhibition, caprylic acid and organic acids (Example 13); format: cell-based
Protocol: (§1) Potato dextrose agar (PDA) plates, +/−amendments, were inoculated with selected pathogens. There were several replicate plates used per treatment group (per pathogen tested). After incubation of plates at room temperature, fungal growth was measured.

White mold [2] = test: as above; format: cell-based
Protocol: as §1

Botrytis cinerea [3] = tested on: Botrytis cinerea
White mold [4] = format: cell-based
Late blight = format: cell-based
Septoria = format: cell-based

CCNCC.O=C(O)c1ccccc1O [0.010% diethylamine salicylate, diethylamine salicylate]
Inhibition (%) of Botrytis cinerea (Botrytis cinerea [1]): 0%
Inhibition (%) of white mold (White mold [2]): 7%

O=C(O)C(O)C(O)C(=O)O (centres unmarked) [0.75% tartaric acid, tartaric acid]
Infected berries (% of total) (Botrytis cinerea [3]; Day 2 after treatment): 31%
Infected berries (% of total) (Botrytis cinerea [3]; Day 3 after treatment): 58%

O=C(O)CO [0.0175% glycolic acid, glycolic acid]
Measurement of fungal growth, based on control plate (100%) (White mold [4]): 127% and 108%
Measurement of fungal growth, based on control plate (100%) (Late blight; Day 2 after inoculum): 79%
Measurement of fungal growth, based on control plate (100%) (Late blight; Day 3 after inoculum): 104%
Measurement of fungal growth, based on control plate (100%) (Septoria): 80% and 90%

From patent US7820594B2 (priority 2003, dated 2010)
